One data set relates to rat erythrocytes. The note with it: rat RBC suspension in PBS, up to 100 μM, 37 °C, 1 h, OD 576 nm, 1% Triton X-100 = 100%, six replicates.
The subject of data set [1] is Human embryonic kidney cells (293). The protocol:
Rat pulmonary artery smooth muscle cells (RPASMCs, primary cells separated by our laboratory) and human keratinocytes cells (HaCaT cells, Mingjing Biology, Shanghai, China) were cultured in high-glucose Dulbecco’s Modified Eagle Medium (DMEM), supplemented with 10% fetal bovine serum (FBS). Human umbilical vein endothelial cells (HUVECs, BeNa Culture Collection, Kunshan City, China) were cultured in the MCDB131 medium supplemented with 20% FBS and growth factor additives. Human embryonic kidney cells (293, Procell Life Science & Technology Co., Ltd., Wuhan, China) were cultured in minimum Eagle’s medium (MEM) supplemented with 10% FBS. All cells were cultured at 37 °C, with 5% CO2. All animals used in this study were supplied by the Medical Animal Test Center of Xi’an Jiaotong University and study protocols were approved by the Institutional Animal Care and Use Committee of the Ethics Committee of Health Science Center, Xi’an Jiaotong University (Ethical approval code: 2017-609).
Cells were inoculated in 96-well plates at 5 × 10^3 cells/well and cultured at 37 °C under 5% CO2. The supernatant was removed, and the cells were washed three times with PBS. Next, 100 μL of fresh culture medium containing different antimicrobial peptides was added (peptide concentration: 0, 1.0, 2.0, 5.0, 10, 25, 50 and 100 μM). Each concentration was repeated five times. Then, 10 μL of CCK-8 reagent was added 48 h later, followed by another two hours of incubation. The absorbance at 450 nm was measured using the same Multilabel Reader. Cellular growth viability was calculated using the following equation:Viability (%) = (mean absorbance value of treatment group − mean absorbance value of blank group group)/(mean absorbance value of control group − mean absorbance value of blank group) × 100. (2)

The nature of data set [2]: Peptide stability in rat serum by HPLC. The data set is classed as in vitro ADME. The note with it: 10 mg/mL in rat serum, 37 °C, 200 rpm, 24 h, HPLC peak area 220 nm, repeated three times; read-out: peptide remaining after 24 h of co-incubation with rat serum. The protocol: (§1) Antimicrobial peptides were dissolved in water or rat serum with a concentration of 10 mg/mL. The solution was incubated at 37 °C, 200 rpm for different time periods, and diluted 50 times for the HPLC analysis. In water, the incubation time was 0 h and 48 h. In rat serum, the incubation time was 0, 2, 4, 7, 12, 24 or 48 h. Each incubation condition was repeated three times. HPLC was conducted on a Waters HPLC system, which consisted of a 2996 photodiode array detector, a 2695 separation module and a temperature control column oven. Column: Sinochrom ODS-BP, 5 μm, 4.6 × 250 mm (Dalian Elite Analytical Instruments Co., Ltd., Dalian, China). Mobile phase: A: 100% ACN + 0.1% TFA; B: 100% Water + 0.1% TFA. Gradient elution: 0–20 min, 95% B–100% A; 20–25 min, 100% A. Detection wavelength: 220 nm. Flow rate: 1 mL/min. Sample volume: 50 μL (0.2 mg/mL).

A further data set concerns Kunming mice. As to conditions: mouse, in vivo, iv. How it is done:
Forty healthy male Kunming mice weighing ~25 g (5–6 weeks old) were injected intravenously with 100 μL of GK-19 with concentrations of 5 μmol/kg (n = 15) or 25 μmol/kg (n = 15). Mice blood samples (n = 5, per group and per time point) were collected from the mice’s eyeballs on days 1, 3 and 7 after injection for renal function test and liver function test. Meanwhile, major organs including lungs, heart, kidneys, liver and spleen were also harvested for hematoxylin and eosin staining on days 1, 3 and 7 after injection. To monitor the body weight changes in mice after injection of GK-19, five healthy male Kunming mice weighing ~25 g were injected intravenously with 100 μL of GK-19 with concentrations of 25 μmol/kg. Mice weights were recorded daily for seven days.
(§2) The hematoxylin and eosin staining in this study was carried out by Servicebio (Wuhan, China). Briefly, the obtained skin tissues were soaked in 4% paraformaldehyde solution (Beyotime, China) and fixed for more than 24 h. Then, they were dehydrated and embedded with paraffin, and tissue sections having thicknesses of 4 μm were prepared. After deparaffinization and rehydration, hematoxylin and eosin staining was performed.

The nature of data set [3]: Peptide stability in water by HPLC. The data set is classed as physicochemical. As to conditions: 10 mg/mL in water, 37 °C, 200 rpm, 0 and 48 h, HPLC 220 nm, repeated three times. How it is done:
as §1

For another data set, the system named is C. albicans. The note with it: mouse, in vivo, 2 h, 50 μM. The protocol:
(§3) The scalded mice models combined with SSTIs by MRSA or C. albicans were constructed. Fifty normal male Kunming mice (5–6 weeks old) weighing ~25 g were anesthetized by isoflurane using a small animal anesthesia machine (R640, RWD Life Science, China). After skin preparation and disinfection, a custom-made circular iron (diameter: 8 mm) (shown in Figure S4) was applied to both sides of the spine of the mice for 10 s at 300 °C, resulting in four scalded wounds. Mice were injected subcutaneously with 5 mg/kg meloxicam (Aladdin, Shanghai, China) for four days (once per day) after scalding for pain relief. Two days after scalding, the skin tissues of the scalded areas were removed carefully, and about 30 μL of 1 × 10^7 CFU/mL of MRSA or C. albicans was applied evenly onto the surfaces of the wounds. The mice were returned to the original feeding environment after the microbial fluid was completely absorbed (1.5–2 h), with two mice per cage. Corncob granules with SPF level were used as padding.
(§4) Two days after microbe inoculating, the scalded wounds of each mouse were divided into four groups randomly. […] The mice were returned to the original feeding environment after the solutions were completely absorbed. The treatment lasted for 12–16 days. Photographs of the wound areas were taken every two days using an iPhone 11 and the wound areas were measured every two days using Image J software (152-win-java8, Bethesda, MD, USA). The average wound areas on day two were used as the reference (100% unhealed) to normalized wound areas. Skin tissues of the wound areas were removed carefully at different time points (n = 5 for each time point) and weighted in a sterile environment. For MRSA infection, 10 mg of the wound tissues was dispersed into 1000 μL of sterile saline solution and the tissue solution was ground into suspension in a tissuelyser (Tissuelyser LT, Servicebio). Then, the tissue suspension was diluted with sterile saline solution 10 times and plated on MHA with a sample volume of 50 μL. For C. albicans infection, 10 mg of the wound tissues was dispersed into 200 μL of sterile saline solution and the tissue solution was also ground into suspension in the tissuelyser. The tissue suspension was then plated on PDA directly with a sample volume of 20 μL. After culturing overnight, the colonies were counted using Image J software or human eyes. In addition, the skin tissues of the wound area were removed carefully at different time points and dispersed into a 4% paraformaldehyde solution for further use.
as §2

The test system of another data set is MRSA. The note with it: mouse, in vivo, 2 h, 50 μM. How it is done:
as §3, §4, §2

Where no end group is shown, it is not given here.

Experimental for rat erythrocytes: The hemolysis assay was carried out as reported in the literature [22]. Briefly, healthy male rats weighing ~300 g were anesthetized by isoflurane using a small animal anesthesia machine (R640, RWD Life Science, Shenzhen, China). Fresh rat blood samples were drawn from the ventral main vein and collected into an ethylene diamine tetraacetic acid (EDTA) treated anticoagulation tube. The collected blood samples were centrifuged at 4 °C, 350× g for five minutes. Red blood cells (RBCs) were pipetted and washed three times with cold PBS. […] These tubes were incubated at 37 °C, 1000 rpm in a BG200 dry bath incubator (Hangzhou LongGene Scientific Instruments Co., Ltd., Hangzhou, China) for 1 h. Then, the tubes were centrifuged at 350× g for 5 min. Next, 20 μL of the supernatants was mixed with 180 μL of PBS. Afterwards, 100 μL of the mixture was transferred into 96-well plates and hemoglobin release was monitored at 576 nm using a Multilabel Reader Varioskan Flash (Thermo Fisher). The RBC suspension in PBS was used as a negative control. The absorbance of the wells containing 1% Triton X-100 was taken as 100% hemolysis. The percentage of hemolysis was calculated using this formula:Hemolysis (%) = [(OD576 nm of the peptide solution − OD576 nm of the negative control)/(OD576 nm of the positive control − OD576 nm of the negative control)] × 100. (3) […]

As to GFLFKLIPKAIKKLISKFK [GK-19], the hemolytic activity entry in the data set with rat erythrocytes is “negligible hemolytic activity”. Moreover, the “cytotoxicity at the effective antimicrobial concentration, 293 cells” value in data set [1] was “almost no apoptotic cells”. Also, in data set [1] (100 µM), the “cell viability, 293 cells” value was “less than 20%”. Also, in data set [2], the amount remaining (as a rule, the share of the starting amount still present when the sample was taken) at 24 h, 10 mg/mL was over 50%. In the data set with Kunming mice, the body weight change result is given as “gradual gain in body weight”; the “histology of major organs (heart, liver, spleen, lungs, kidneys)” value was “no observable tissue damage, necrosis, or inflammation”; the “liver and renal function tests” value is given as “no difference from that in healthy mice”. Besides, in data set [3], the “time for which structural stability was retained in water” value was at least 48 h. Besides, the “C. albicans suppressed (inhibition rate) at day eight compared with saline solution groups” value with C. albicans is listed as “more than 97%”. For the same sequence, in the data set with MRSA, the “MRSA suppressed (inhibition rate) at day eight compared with saline solution groups” value is recorded as “more than 95%”.

The values are drawn from PMC9503518, “Antibacterial and Antifungal Properties of a Novel Antimicrobial Peptide GK-19 and Its Application in Skin and Soft Tissue Infections Induced by MRSA or Candida albicans” (Pharmaceutics, 2022).
